Experimental data from article PMC9356275, “A quantitative high-throughput screen identifies compounds that lower expression of the SCA2-and ALS-associated gene ATXN2” (The Journal of Biological Chemistry, 2022).
Where a name gives a salt, the structure may show the parent alone.

system: ATXN2-luc; experiment: MSSR pilot screen: ATXN2-luc luciferase assay (Bright-Glo) in H2 cells, single 10 μM dose; assay type: cell-based, human; conditions: H2 cells, single dose (title: 10 μM compound), overnight

SMILES | SD from mean (ATXN2-luc, Z-score)
O=C1C=CC(=O)c2ccccc21 [4-NAPHTHOQUINONE] | -3.613 SD
C[n+]1c2cc(N)ccc2cc2ccc(N)cc21.[Cl-] [ACRIFLAVINIUM HYDROCHLORIDE] | -4.148 SD
CCCCCCc1ccc(O)cc1O.Nc1c2ccccc2nc2ccccc12 [ACRISORCIN] | -3.600 SD
CC[C@@]1(O)C[C@H](O[C@H]2C[C@H](N(C)C)[C@H](O)[C@H](C)O2)c2c(cc3c(c2O)C(=O)c2c(O)cccc2C3=O)[C@H]1C(=O)OC [AKLAVINE HYDROCHLORIDE] | -3.741 SD
Nc1c2ccccc2nc2ccccc12 [AMINACRINE] | -4.103 SD
N=c1ccn2c(n1)O[C@H]1[C@H](O)[C@@H](CO)O[C@H]12 [ANCITABINE HYDROCHLORIDE] | -3.031 SD
CC(=O)O[C@@H]1C[C@@]2(C)[C@H](c3ccoc3)C[C@H]3O[C@]32[C@]2(C)C(=O)C(O)=C3C(C)(C)C(=O)C=C[C@]3(C)[C@@H]12 [ANTHOTHECOL] | -3.020 SD
COc1ccc(C[C@H]2NC[C@H](O)[C@H]2OC(C)=O)cc1 [Anisomycin] | -4.015 SD
CC(C)/N=c1\cc2n(-c3ccc(Cl)cc3)c3ccccc3nc-2cc1Nc1ccc(Cl)cc1 [CLOFAZIMINE] | -2.792 SD
CO[C@H]1C=C[C@@]23c4cc5c(cc4CN(C[C@@H]2O)[C@H]3C1)OCO5 [CRINAMINE] | -3.651 SD
Nc1ccn([C@@H]2O[C@H](CO)[C@@H](O)[C@@H]2O)c(=O)n1 [CYTARABINE] | -3.681 SD
COc1cccc2c1C(=O)c1c(O)c3c(c(O)c1C2=O)C[C@@](O)(C(C)=O)C[C@@H]3O[C@H]1C[C@H](N)[C@H](O)[C@H](C)O1 [Daunorubicin hydrochloride] | -4.155 SD
Cc1c2ccncc2c(C)c2c1[nH]c1ccccc12 [Ellipticine] | -3.485 SD
CC(C)=CCC[C@]1(C)C=Cc2c(O)c3c(c(CC=C(C)C)c2O1)O[C@]12C(=C[C@@H]4C[C@H]1C(C)(C)O[C@@]2(C/C=C(/C)C(=O)O)C4=O)C3=O [GAMBOGIC ACID] | -4.841 SD
COC(=O)C[C@](O)(CCCC(C)(C)O)C(=O)O[C@@H]1C(OC)=C[C@]23CCCN2CCc2cc4c(cc2[C@H]13)OCO4 [HOMOHARRINGTONINE] | -3.117 SD
CC(=O)[C@]1(O)Cc2c(O)c3c(c(O)c2[C@@H](O[C@H]2C[C@H](N)[C@H](O)[C@H](C)O2)C1)C(=O)c1ccccc1C3=O [IDARUBICIN HCl] | -2.944 SD
CC(=O)[C@]1(O)Cc2c(O)c3c(c(O)c2[C@@H](O[C@H]2C[C@H](N)[C@H](O)[C@H](C)O2)C1)C(=O)c1ccccc1C3=O [IDARUBICIN] | -2.719 SD
CC(C)[N+](C)(CCC(C(N)=O)(c1ccccc1)c1ccccc1)C(C)C [ISOPROPAMIDE IODIDE] | -4.073 SD
O[C@H]1[C@H]2c3cc4c(cc3CN3CCC(=C[C@@H]1O)[C@H]23)OCO4 [Lycorine hydrochloride] | -2.968 SD
Cl.Cl.O=C1c2c(O)ccc(O)c2C(=O)c2c(NCCNCCO)ccc(NCCNCCO)c21 [MITOXANTHRONE HYDROCHLORIDE] | -4.333 SD
O=C1c2c(O)ccc(O)c2C(=O)c2c(NCCNCCO)ccc(NCCNCCO)c21 [Mitoxantrone dihydrochloride] | -3.666 SD
O=C(Nc1ccc([N+](=O)[O-])cc1Cl)c1cc(Cl)ccc1O [Niclosamide] | -4.393 SD
N=C1C=CC(=C(c2ccc(N)cc2)c2ccc(N)cc2)C=C1 [PARAROSANILINE PAMOATE] | -2.740 SD
